# Laboratory results published in PubChem BioAssay AID1845228.
# Conditions: pampa; 60.0 min; 50.0 µM
row,Structure (SMILES),Papp [×10⁻⁶ cm/s]
1,CC(=O)N1CCN(C(=O)c2ccc(-c3ncc4cnc(-c5cccc(F)c5)cn34)cc2)CC1,< 1
2,FC(F)(F)c1ccccc1-c1cc(C(F)(F)F)c2nc(C3=NOC4(CCCCC4)C3)[nH]c2c1,8
3,N=c1c2c(-c3ccccc3)c(-c3ccccc3)n(Cc3ccccc3)c2ncn1CCCCO,259
4,Cn1c2cc(C=O)sc2c2cnn(Cc3ccccc3F)c(=O)c21,270
5,Cn1nnnc1Sc1ncnc2scc(-c3ccc(C(=O)OC(C)(C)C)cc3)c12,72
6,CC(C)C[C@H](NC(=O)CNC(=O)c1cc(Cl)ccc1Cl)B1OC(=O)C(CC(=O)O)(CC(=O)O)O1,< 1
7,CSc1nc(N)cc(Oc2ccc(-c3nc(Nc4cccc(C(F)(F)F)c4)n[nH]3)cc2)n1,53.8
8,C[C@@H]1C[C@@H](O)[C@]2(O)O[C@@H]3C[C@@]4(C=O)C(CC[C@@H]5C4CC[C@]4(C)[C@@H](C6=CC(=O)OC6)CC[C@]54O)C[C@H]3O[C@@H]2O1 (stereo partly specified),< 1
9,O=C(Nc1cnc(Cl)nc1)c1ccc(F)c(F)c1,61
10,c1ccc(Nc2nc3c(s2)CCCc2[nH]ncc2-3)nc1,194
11,Cn1nnnc1Sc1ncnc2scc(-c3ccc(Br)cc3)c12,159
12,O=C(N[C@@H](CO)[C@H](O)c1ccc([N+](=O)[O-])cc1)C(Cl)Cl,3
13,Nc1c(C(=O)Nc2ccc(Cl)c(C(F)(F)F)c2)sc2nc3c(cc12)N1CCC3CC1,213
14,O=C(O)[C@@H]1C[C@H]2C[C@@H](CCc3nn[nH]n3)CC[C@H]2CN1,3
15,COCCN(C)Cc1ccc2nc3sc(C(=O)N(C)C4CCCCC4)cn3c2c1,79
16,N#Cc1ccnc(Nc2cc(C3CCN(C4COC4)CC3)cc(N3CCC(F)(F)C3)n2)c1,133
17,N[C@@H](C(=O)N[C@@H]1C(=O)N2C(C(=O)O)=C(Cl)CC[C@H]12)c1ccccc1,< 1
18,C/C(=C\c1csc(C)n1)[C@@H]1C[C@@H]2O[C@]2(C)CCC[C@H](C)[C@H](O)[C@@H](C)C(=O)C(C)(C)[C@@H](O)CC(=O)N1,1.7
19,N=c1c2c(-c3ccccc3)c(-c3ccccc3)n(Cc3ccccc3)c2ncn1[C@H](CO)Cc1ccccc1,< 1
20,COCCn1cnc2c(c(-c3ccccc3)cn2Cc2ccccc2)c1=N,139
21,CC(C)N(CCCNC(=O)Nc1ccc(C(C)(C)C)cc1)C[C@H]1O[C@@H](n2cc(Br)c3c(N)ncnc32)[C@H](O)[C@@H]1O,6.2
22,CCOC(CCCn1cnc2c(c(-c3ccccc3)c(-c3ccccc3)n2CCc2ccccc2)c1=N)OCC,< 1
23,CC(C)(C)C(=O)OCOC(=O)C1N2C(=O)CC2S(=O)(=O)C1(C)C (stereo unspecified),37

row,Structure (SMILES),Papp [×10⁻⁶ cm/s]
1,Cc1cccc(-n2nnnc2S(C)(=O)=O)c1,28.3
2,CN(C)CCN(C)C(=O)c1ccc(-c2ncc3cnc(-c4cccc(F)c4)cn23)cc1,90
3,CCS(=O)(=O)N1CC(CC#N)(n2cc(-c3ncnc4[nH]ccc34)cn2)C1,< 1
4,Cn1nnnc1Sc1ncnc2scc(-c3ccc(Cl)cc3)c12,> 300
5,CC1NC(C(=O)O)Cc2c1[nH]c1ccccc21 (stereo unspecified),< 1
6,COCCn1cnc2c(c(-c3ccccc3)c(-c3ccccc3)n2Cc2ccccc2)c1=N,174
7,CCC(=O)N1CCN(c2ccc(-n3c(=O)ccc4cnc5ccc(-c6cnc7ccccc7c6)cc5c43)cc2C(F)(F)F)CC1,158
8,COc1ccc(CCn2cnc3c(c(-c4ccccc4)cn3Cc3ccccc3)c2=N)cc1OC,284
9,COc1cccc2c1C(=O)c1c(O)c3c(c(O)c1C2=O)C[C@@](O)(C(C)=O)C[C@@H]3O[C@H]1C[C@H](N)[C@H](O)[C@H](C)O1,8
10,Oc1c(Cl)cc(Cl)cc1Sc1cc(Cl)cc(Cl)c1O,288
11,CC/C=C(\C(=O)N[C@@H]1C(=O)N2C(C(=O)OCOC(=O)C(C)(C)C)=C(COC(N)=O)CS[C@H]12)c1csc(N)n1,< 1
12,N=c1c2c(-c3ccccc3)c(-c3ccccc3)n(Cc3ccccc3)c2ncn1CC1CCCO1 (stereo unspecified),207
13,Nc1nc2c(c(N3CCNCC3)n1)CCC1=C2[C@@H]2CCCC[C@@H]2O1,30
14,N=c1c2c(-c3ccccc3)cn(Cc3ccccc3)c2ncn1C1CCC(O)CC1 (stereo unspecified),217
15,N[C@@H](Cc1ccc(N(CCCl)CCCl)cc1)C(=O)O,131
16,Cn1c(CCCCCCC(=O)NO)nc2cc(N(CCCl)CCCl)ccc21,< 1
17,O=c1c2c(c1=O)N(CCP(=O)(O)O)CCCN2,< 1
18,C[C@@H](O)[C@H]1C(=O)N2C(C(=O)O)=C([C@H]3CCCO3)S[C@H]12,< 1
19,O=C(NCC1CCOCC1)c1cnc(Nc2ccc(Cl)cc2Cl)nc1C(F)(F)F,< 1
20,COC(=O)C[C@@H](C(=O)OC)n1cnc2c(c(-c3ccccc3)cn2Cc2ccc(Br)cc2)c1=N,< 1
21,CO/N=C(\C(=O)N[C@@H]1C(=O)N2C(C(=O)O)=C(CSc3nc(C)c(CC(=O)O)s3)CS[C@H]12)c1csc(N)n1,< 1
22,Oc1ccc2nc(CN3CCC(Cc4ccccc4F)CC3)[nH]c2c1,107
23,Clc1ccc(CN[C@H]2CCN(c3ncc(Br)cn3)C2)c(Cl)c1,> 300

row,Structure (SMILES),Papp [×10⁻⁶ cm/s]
1,CC#CC(=O)N1CCC[C@H]1c1nc(-c2ccc(C(=O)Nc3ccccn3)cc2)c2c(N)nccn12,< 1
2,N=c1c2c(-c3ccccc3)cn(Cc3ccccc3)c2ncn1[C@@H]1CCCC[C@H]1N,101
3,COc1ccc(-c2c(Cl)ncn2-c2ccc(S(N)(=O)=O)cc2)cc1F,78
4,NC(=O)OC[C@@H]1[C@H](NC(=O)/C(=N\OCC(=O)O)c2csc(N)n2)C(=O)N1S(=O)(=O)O,< 1
5,O=C1c2c(O)ccc(O)c2C(=O)c2c(NCCNCCO)ccc(NCCNCCO)c21,19
6,CCC(=O)C1=C(c2ccc(F)cc2)N(C(=O)CC)n2cnnc2S1,189
7,Cn1c2cc(S(C)=O)sc2c2cnn(Cc3ccccc3F)c(=O)c21 (stereo unspecified),49
8,C/C1=C\CC[C@]2(C)O[C@H]2C(=O)c2c(C)coc2C1,122
9,CC(C)C[C@H]1C(=O)O[C@H](Cc2ccc(N3CCOCC3)cc2)C(=O)N(C)[C@@H](CC(C)C)C(=O)O[C@H](C)C(=O)N(C)[C@@H](CC(C)C)C(=O)O[C@H](Cc2ccc(N3CCOCC3)cc2)C(=O)N(C)[C@@H](CC(C)C)C(=O)O[C@H](C)C(=O)N1C,< 1
10,O=C(Nc1ncc([N+](=O)[O-])s1)c1ccccc1O,8
11,O=C1NC(Nc2ccccc2)=N/C1=C\c1ccc2c(c1)OCO2,< 1
12,C[n+]1c2cc(N)ccc2cc2ccc(N)cc21,< 1
13,CN[C@H](CC(C)C)C(=O)N[C@H]1C(=O)N[C@@H](CC(N)=O)C(=O)N[C@H]2C(=O)N[C@H]3C(=O)N[C@H](C(=O)N[C@H](C(=O)O)c4cc(O)cc(O)c4-c4cc3ccc4O)[C@H](O[C@H]3C[C@](C)(N)[C@@H](O)[C@H](C)O3)c3ccc(c(Cl)c3)Oc3cc2cc(c3O[C@@H]2O[C@H](CO)[C@@H](O)[C@H](O)[C@H]2O[C@H]2C[C@](C)(NCc3ccc(-c4ccc(Cl)cc4)cc3)[C@@H](O)[C@H](C)O2)Oc2ccc(cc2Cl)[C@H]1O,12
14,CC(=O)O[C@H]1C[C@@H](C)O[C@H]2O[C@@H]3CC4CC[C@@H]5C(CC[C@]6(C)[C@@H](C7=CC(=O)OC7)CC[C@]56O)[C@@]4(C=O)C[C@H]3O[C@]21O (stereo partly specified),54
15,C=CCN1CC[C@]23c4c5ccc(O)c4O[C@H]2[C@@H](OCCOCCOCCOCCOCCOCCOCCOC)CC[C@@]3(O)[C@H]1C5,< 1
16,CO/N=C(\C(=O)N[C@@H]1C(=O)N2C(C(=O)OCOC(=O)C(C)(C)C)=C(/C=C\c3scnc3C)CS[C@H]12)c1csc(N)n1,11
17,Cn1nnnc1Sc1ncnc2scc(-c3ccc([N+](=O)[O-])cc3)c12,93
18,COC(=O)C[C@@H](C(=O)OC)n1cnc2c(c(-c3ccccc3)cn2Cc2ccccc2)c1=N,26
19,c1nc(NC2CCCCCC2)c2cc(CNC[C@H]3CCCO3)sc2n1,105
20,O=C(NCCc1cnc[nH]1)c1ccc(-c2ncc3cnc(-c4cccc(F)c4)cn23)cc1,< 1
21,Cc1nc2c([nH]1)CCN(C(=O)c1ccc(NC(=O)c3ccccc3-c3ccccc3)cc1)c1ccccc1-2,98
22,CON=C(C(=O)N[C@@H]1C(=O)N2C(C(=O)O)=C(Cn3ccc(=N)n3CCO)CS[C@H]12)c1csc(N)n1,< 1
23,O=C(Nc1cccnc1)c1cccs1,10

row,Structure (SMILES),Papp [×10⁻⁶ cm/s]
1,O=C(O)C1CCc2cc(C3CCCCC3)c(Cl)cc21 (stereo unspecified),61
2,N#Cc1ccc(C(=O)N2CCC3(CC2)N=C(N)c2c(F)ccc(F)c2N3)cn1,4
3,O=[N+]([O-])c1nccn1CO[C@@H](CO)[C@H](O)CO,< 1
4,CC1(C)CC(=O)c2c(C(F)(F)F)nn(-c3ccc(C(N)=O)c(NC4CCC(O)CC4)c3)c2C1 (stereo unspecified),21.5
5,CC(/C=C/[C@@H]1C[C@]1(C)c1ccc2c(c1)C(C)(C)CCC2(C)C)=C\C(=O)O,63
6,C1=C(c2cnc[nH]2)c2ccsc2CC1,5
7,CCOc1ccc(-c2nn3ncccc3c2-c2ccc(S(C)(=O)=O)cc2)cc1,111
8,COc1ccc(Cn2c(-c3ccccc3)c(-c3ccccc3)c3c(=N)n(CCCCCO)cnc32)cc1,206
9,OCCCCC#Cc1cncc(OC[C@@H]2CCN2)c1,< 1
10,CC(C)N(CCCCOCC(=O)NS(C)(=O)=O)c1cnc(-c2ccccc2)c(-c2ccccc2)n1,9
11,O=C(N/N=C/c1ccc(O)c(O)c1)c1cc2ccccc2cc1O,5
12,COc1cc(Cc2cnc(N)nc2N)c(C(C)C)cc1OC,48
13,CCn1c(C(=O)N(C2CC2)C2CC2)cc2c3c(ncn3C)c(Nc3cc(C)n(C)n3)nc21,31
14,CCN(CC)CCNC(=O)c1c(C)[nH]c(/C=C2\C(=O)Nc3ccc(F)cc32)c1C,56
15,CN(C)c1cc2c(cc1Sc1nc3c(N)nccc3n1CCNCC(C)(C)C)OCO2,20
16,O=C1[C@H](CC[C@H](O)c2ccc(F)cc2)[C@@H](c2ccc(O)cc2)N1c1ccc(F)cc1,< 1
17,O=C(O)[C@H]1O[C@@H](Oc2cc3oc(-c4ccc(O)cc4)cc(=O)c3c(O)c2O)[C@H](O)[C@@H](O)[C@@H]1O,< 1
18,CC(C)[C@]12O[C@H]1[C@@H]1O[C@]13[C@]1(O[C@H]1C[C@H]1C4=C(CC[C@@]13C)C(=O)OC4)[C@@H]2O,< 1
19,CCOc1ccc2ccccc2c1C(=O)N[C@@H]1C(=O)N2[C@@H]1SC(C)(C)[C@@H]2C(=O)O,< 1
20,CN(C)CCn1cnc2c(c(-c3ccccc3)c(-c3ccccc3)n2Cc2ccccc2)c1=N,76
21,Nc1ncnc2c1ncn2[C@H]1O[C@@H](CSCC[C@@H](N)C(=O)O)[C@H](O)[C@@H]1O,< 1
22,COc1cccc(-c2csc3ncnc(Sc4nnnn4C)c23)c1,219
